Reference: patent publication US20250304582A1, “Bicyclic Ureas As Kinase Inhibitors” (Incyte Corporation, priority 2024, published 2025)

Assays:
[1] = biological target: T1, catalytic domain (JH1, amino acids 826-1132) of human JAK2 (Homo sapiens, UniProt O60674); experiment: JAK2 LanthaScreen JH1 Binding Assay; conditions: 50 nM fluorescent JAK2-JH1 tracer, 2 hours at 25° C.; read-out: JH1 BIND (EX. A)
T1 construct: catalytic domain (JH1, amino acids 826-1132) of human JAK2; FLAG (N); purchased Carna Biosciences 08-445-20N; host or cells: baculovirus expression system
T1 sequence (O60674 826-1132): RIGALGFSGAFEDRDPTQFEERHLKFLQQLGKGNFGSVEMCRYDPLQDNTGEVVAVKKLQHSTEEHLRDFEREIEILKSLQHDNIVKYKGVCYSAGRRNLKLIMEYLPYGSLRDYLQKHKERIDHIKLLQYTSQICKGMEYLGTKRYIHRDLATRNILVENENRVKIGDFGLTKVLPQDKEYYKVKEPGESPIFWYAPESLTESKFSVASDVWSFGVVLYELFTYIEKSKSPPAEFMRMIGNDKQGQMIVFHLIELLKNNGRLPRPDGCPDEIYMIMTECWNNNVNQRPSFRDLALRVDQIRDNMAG
Procedure: Example A. JAK2 LanthaScreen JH1 Binding Assay
JAK2 JH1 binding assay utilizes catalytic domain (JH1, amino acids 826-1132) of human JAK2 expressed as N-terminal FLAG-tagged, biotinylated protein in a baculovirus expression system (Carna Biosciences, Product #08-445-20N). The assay was conducted in black 384-well polystyrene plates in a final reaction volume of 20 μL. JAK2 JH1 (1.5 nM) was incubated with compounds (100 nL serially diluted in DMSO) in the presence of 50 nM fluorescent JAK2-JH1 tracer and 0.5 nM Streptavidin-Tb cryptate (Cisbio Part #610SATLB) in assay buffer (50 mM Tris, pH=7.5, 10 mM MgCl2, 0.01% Brij-35, 0.1% BSA, 1 mM EGTA, 5% Glycerol and 5 mM DTT). Non-specific binding was accessed in the presence of 2 mM ATP. After incubation for 2 hours at 25° C., LanthaScreen signals were read on a PHERAstar FS plate reader (BMG LABTECH). Data was analyzed with IDBS Xlfit and GraphPad Prism 5.0 software using a four parameter dose response curve to determine IC50 for each compound.

[2] = biological target: T2, pseudo-kinase domain (JH2, amino-acids 536-812) of human V617F mutant JAK2 (Homo sapiens, UniProt O60674, F794H/V617F/W659A/W777A); experiment: JAK2 LanthaScreen JH2-V617F Binding Assay; conditions: 50 nM Fluorescent JAK2-JH2 Tracer, 1 hour at 25° C.; read-out: JH2 BIND V617F (Ex. C)
T2 construct: JH2, amino-acids 536-812 with 3 surface mutations W659A, W777A, F794H; His (C); purchased BPS Bioscience 79498; host or cells: baculovirus expression system
T2 sequence (O60674 536-812 V617F/W659A/W777A/F794H): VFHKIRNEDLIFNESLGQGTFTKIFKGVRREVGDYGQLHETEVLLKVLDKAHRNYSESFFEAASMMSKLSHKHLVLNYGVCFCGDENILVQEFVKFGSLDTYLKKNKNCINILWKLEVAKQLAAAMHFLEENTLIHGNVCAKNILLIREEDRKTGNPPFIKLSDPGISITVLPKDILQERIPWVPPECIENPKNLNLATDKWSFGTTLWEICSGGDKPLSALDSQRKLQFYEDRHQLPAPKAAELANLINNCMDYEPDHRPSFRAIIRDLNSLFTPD
Procedure: Example C. JAK2 LanthaScreen JH2-V617F Binding Assay
(§1) JAK2 JH2-V617F binding assay utilizes pseudo-kinase domain (JH2, amino-acids 536-812 with 3 surface mutations W659A, W777A, F794H) of human V617F mutant JAK2 expressed as C-terminal His-Avi-tagged, biotinylated protein in a baculovirus expression system (BPS Bioscience, Catalog #79498). The assay was conducted in black 384-well polystyrene plates in a final reaction volume of 20 μL. JAK2 JH2-V617F (0.26 nM) was incubated with compounds (100 nL serially diluted in DMSO) in the presence of 50 nM Fluorescent JAK2-JH2 Tracer (MedChem Express Catalog #HY-102055) and 0.25 nM Streptavidin-Tb cryptate (Cisbio Part #610SATLB) in assay buffer (50 mM Tris, pH=7.5, 10 mM MgCl2, 0.01% Brij-35, 0.1% BSA, 1 mM EGTA, 5% Glycerol and 5 mM DTT). Non-specific binding was accessed in the presence of 2 mM ATP. After incubation for 1 hour at 25° C., LanthaScreen signals were read on a PHERAstar FS plate reader (BMG LABTECH). Data was analyzed with IDBS Xlfit and GraphPad Prism 5.0 software using a four parameter dose response curve to determine IC50 for each compound.

[3] = biological target: T3, pseudo-kinase domain (JH2, amino-acids 536-812) of human Wild Type JAK2 (Homo sapiens, UniProt O60674, F794H/W659A/W777A); experiment: JAK2 LanthaScreen JH2-WT Binding Assay; conditions: 50 nM Fluorescent JAK2-JH2 Tracer, 1 hour at 25° C.; read-out: JH2 BIND WT (EX. B)
T3 construct: JH2, amino-acids 536-812 with 3 surface mutations W659A, W777A, F794H; His (C); purchased BPS Bioscience 79463; host or cells: baculovirus expression system
T3 sequence (O60674 536-812 W659A/W777A/F794H): as the sequence (O60674 536-812 V617F/W659A/W777A/F794H) above, with F82V counted along it
Procedure: Example B. JAK2 LanthaScreen JH2-WT Binding Assay
as §1, with “JH2-WT” for “JH2-V617F”, “Wild Type” for “V617F mutant”, “#79463).” for “#79498).”, “JH2-WT (0.145” for “JH2-V617F (0.26”

[4] = biological target: T4, catalytic domain (JH1, amino acids 808-1132) of human JAK2 (Homo sapiens, UniProt O60674); experiment: JAK2 HTRF Enzyme Activity Assay; assay type: biochemical; conditions: ATP (30 μM or 1 mM; not stated which for the table), 60 minutes at 25° C.; read-out: JAK2 HTRF (Ex. D)
T4 construct: catalytic domain (JH1, amino acids 808-1132) of human JAK2; His (N); purchased BPS Bioscience 40450; host or cells: baculovirus expression system
T4 sequence (O60674 808-1132): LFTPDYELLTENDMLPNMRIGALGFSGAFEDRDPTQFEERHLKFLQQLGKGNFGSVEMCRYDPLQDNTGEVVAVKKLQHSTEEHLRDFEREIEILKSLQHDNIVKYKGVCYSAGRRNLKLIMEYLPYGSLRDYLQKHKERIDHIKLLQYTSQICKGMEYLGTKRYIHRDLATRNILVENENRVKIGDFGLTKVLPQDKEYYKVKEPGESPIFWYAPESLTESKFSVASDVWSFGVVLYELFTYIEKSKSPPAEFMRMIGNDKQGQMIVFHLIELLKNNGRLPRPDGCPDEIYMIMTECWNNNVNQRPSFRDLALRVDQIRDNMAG
Procedure: Example D. JAK2 HTRF Enzyme Activity Assay
JAK2 enzyme activity assays utilize catalytic domain (JH1, amino acids 808-1132) of human JAK2 expressed as N-terminal His-tagged protein in a baculovirus expression system (BPS Bioscience, Catalog #40450). The assays was conducted in black 384-well polystyrene plates in a final reaction volume of 20 μL. JAK2 (0.015 nM) was incubated with compounds (100 nL serially diluted in DMSO) in the presence of ATP (30 μM or 1 mM) and 500 nM Biotin-labeled EQEDEPEGDYFEWLE (SEQ ID NO.: 1) peptide (BioSource International, custom synthesis) in assay buffer (50 mM Tris, pH=7.5, 10 mM MgCl2, 0.01% Brij-35, 0.1% BSA, 1 mM EGTA, 5% Glycerol and 5 mM DTT) for 60 minutes at 25° C. The reactions were stopped by the addition of 10 μL of detection buffer (50 mM Tris, pH 7.8, 0.5 mg/mL BSA, 150 mM NaCl), supplemented with EDTA, LANCE Eu-W1024 anti-phosphotyrosine (PY20), (PerkinElmer, Catalog #AD0067) and Streptavidin SureLight APC (PerkinElmer Catalog #CR130-100), for a final concentration of 15 mM, 1.5 nM and 75 nM, respectively. HTRF signals were read after 30 minutes incubation at room temperature on a PHERAstar FS plate reader (BMG LABTECH). Data was analyzed with TDBS Xlfit and GraphPad Prism 5.0 software using a four parameter dose response curve to determine IC50 for each compound.

| Structure (SMILES) | IC50 [1] | IC50 [2] | IC50 [3] | IC50 [4] |
| --- | --- | --- | --- | --- |
| [2H]C([2H])([2H])n1c(=O)n([C@@H]2CC[C@@H](NC(=O)OC)C2)c2cc(Nc3cnc4cccc(C#N)c4n3)ncc21 [Example 37, Methyl ((1R,3R)-3-(6-((8-cyanoquinoxalin-2-yl)amino)-3-(methyl-d3)-2-oxo-2,3-dihydro-1H-imidazo[4,5-c]pyridin-1-yl)cyclopentyl)carbamate] | 100 to 500 nM | 10 to 100 nM | ≤ 10 nM | 100 to 500 nM |
| COC(=O)N[C@@H]1CC[C@@H](n2c(=O)n(C)c3cnc(Nc4ccc5cccc(C(F)F)c5n4)cc32)C1 [Example 38, Methyl ((1R,3R)-3-(6-((8-(difluoromethyl)quinolin-2-yl)amino)-3-methyl-2-oxo-2,3-dihydro-1H-imidazo[4,5-c]pyridin-1-yl)cyclopentyl)carbamate] | > 1000 nM | ≤ 10 nM | ≤ 10 nM | > 1000 nM |
| [2H]C([2H])([2H])n1c(=O)n([C@@H]2CC[C@@H](NC(=O)OC)C2)c2cc(Nc3ccc4cc(F)cc(C(F)(F)F)c4n3)ncc21 [Example 27, Methyl ((1R,3R)-3-(6-((6-fluoro-8-(trifluoromethyl)quinolin-2-yl)amino)-3-(methyl-d3)-2-oxo-2,3-dihydro-1H-imidazo[4,5-c]pyridin-1-yl)cyclopentyl)carbamate] | > 1000 nM | ≤ 10 nM | ≤ 10 nM | > 1000 nM |
| [2H]C([2H])([2H])n1c(=O)n(C23CCC(NC(=O)OC)(C2)C3)c2cc(Nc3cc(C(C)(C)O)c4cccc(C(F)(F)F)c4n3)ncc21 [Example 32, Methyl (4-(6-((4-(2-hydroxypropan-2-yl)-8-(trifluoromethyl)quinolin-2-yl)amino)-3-(methyl-d3)-2-oxo-2,3-dihydro-1H-imidazo[4,5-c]pyridin-1-yl)bicyclo[2.1.1]hexan-1-yl)carbamate] | – | ≤ 10 nM | – | > 1000 nM |
| [2H]C([2H])([2H])n1c(=O)n([C@@H]2CC[C@@]([2H])(NC(=O)OC)C2)c2cc(Nc3cc(C(C)(C)O)c4cccc(C(F)(F)F)c4n3)ncc21 [Example 12, Methyl ((1R,3R)-3-(6-((4-(2-hydroxypropan-2-yl)-8-(trifluoromethyl)quinolin-2-yl)amino)-3-(methyl-d3)-2-oxo-2,3-dihydro-1H-imidazo[4,5-c]pyridin-1-yl)cyclopentyl-1-d)carbamate] | – | ≤ 10 nM | – | > 1000 nM |
| [2H]C([2H])([2H])n1c(=O)n(C23CC(NC(=O)OC)(C2)C3)c2cc(Nc3ccc4cccc(C(F)(F)F)c4n3)ncc21 [Example 33, Methyl (3-(3-(methyl-d3)-2-oxo-6-((8-(trifluoromethyl)quinolin-2-yl)amino)-2,3-dihydro-1H-imidazo[4,5-c]pyridin-1-yl)bicyclo[1.1.1]pentan-1-yl)carbamate] | – | 10 to 100 nM | – | > 1000 nM |
| [2H]C([2H])([2H])n1c(=O)n([C@@H]2CC[C@]([2H])(NC(=O)OC)C2)c2cc(Nc3cc(C(C)(C)O)c4cccc(C(F)(F)F)c4n3)ncc21 [Example 11, Methyl ((1S,3R)-3-(6-((4-(2-hydroxypropan-2-yl)-8-(trifluoromethyl)quinolin-2-yl)amino)-3-(methyl-d3)-2-oxo-2,3-dihydro-1H-imidazo[4,5-c]pyridin-1-yl)cyclopentyl-1-d)carbamate] | – | ≤ 10 nM | – | > 1000 nM |
| [2H]C([2H])([2H])n1c(=O)n([C@@H]2CC[C@@H](NC(=O)OC)C2)c2cc(Nc3cc(C(C)(C)O)c4cccc(C(C)(C)C#N)c4n3)ncc21 [Example 34, Methyl ((1R,3R)-3-(6-((8-(2-cyanopropan-2-yl)-4-(2-hydroxypropan-2-yl)quinolin-2-yl)amino)-3-(methyl-d3)-2-oxo-2,3-dihydro-1H-imidazo[4,5-c]pyridin-1-yl)cyclopentyl)carbamate] | – | 10 to 100 nM | – | > 1000 nM |
| [2H]C([2H])([2H])n1c(=O)n([C@@H]2CC[C@](C)(NC(=O)OC)C2)c2cc(Nc3cc(C(C)(C)O)c4cccc(C(F)(F)F)c4n3)ncc21 [Example 13, Methyl ((1S,3R)-3-(6-((4-(2-hydroxypropan-2-yl)-8-(trifluoromethyl)quinolin-2-yl)amino)-3-(methyl-d3)-2-oxo-2,3-dihydro-1H-imidazo[4,5-c]pyridin-1-yl)-1-methylcyclopentyl)carbamate] | – | ≤ 10 nM | – | > 1000 nM |
| [2H]C([2H])([2H])n1c(=O)n([C@@H]2CC[C@@]([2H])(NC(=O)OC)C2)c2cc(Nc3cc(C)c4nc(C)c(I)n4n3)ncc21 [Example 46, Methyl ((1R,3R)-3-(6-((3-iodo-2,8-dimethylimidazo[1,2-b]pyridazin-6-yl)amino)-3-(methyl-d3)-2-oxo-2,3-dihydro-1H-imidazo[4,5-c]pyridin-1-yl)cyclopentyl-1-d)carbamate] | – | ≤ 10 nM | – | > 1000 nM |
| [2H]C([2H])([2H])n1c(=O)n([C@@H]2CC[C@](C)(NC(=O)OCCOC)C2)c2cc(Nc3cc(C(C)(C)O)c4cccc(C(F)(F)F)c4n3)ncc21 [Example 14, 2-Methoxyethyl ((1S,3R)-3-(6-((4-(2-hydroxypropan-2-yl)-8-(trifluoromethyl)quinolin-2-yl)amino)-3-(methyl-d3)-2-oxo-2,3-dihydro-1H-imidazo[4,5-c]pyridin-1-yl)-1-methylcyclopentyl)carbamate] | – | ≤ 10 nM | – | > 1000 nM |
